This note sets out measurements from patent US12202823B2 (QUIMATRYX, S.L., priority 2019, dated 2025).

As usually defined, the IC50 is the point on the concentration scale where inhibition reaches its midpoint.

SMILES strings stand for the structures. Read-outs that look alike come from different tables or passages of the source.

The target in one assay is hHDAC1 (Homo sapiens (Human), UniProt Q13547). Briefly: hHDAC1 inhibition protocol. To be noted: read-out: IC50 (nM) of enzyme activity HDAC1; selectivity table.
In another assay the target is hHDAC2 (Homo sapiens (Human), UniProt Q92769). Briefly: hHDAC2 inhibition protocol. To be noted: read-out: IC50 (nM) of enzyme activity HDAC2; selectivity table.
A further assay has as its target hHDAC7 (Homo sapiens (Human), UniProt Q8WUI4). Briefly: hHDAC7 inhibition protocol. The settings on record: read-out: IC50 (nM) of enzyme activity HDAC7; selectivity table.
In a further assay the target is hHDAC10 (Homo sapiens (Human), UniProt Q969S8). In words: HDAC10 inhibition protocol. The settings on record: read-out: IC50 (nM) of enzyme activity HDAC10; selectivity table.
A further assay deals with hHDAC8 (Homo sapiens (Human), UniProt Q9BY41). In words: hHDAC8 inhibition protocol. The settings on record: read-out: IC50 (nM) of enzyme activity HDAC8; selectivity table.
The target of another assay is hHDAC6 (Homo sapiens (Human), UniProt Q9UBN7). Briefly: HDAC6 inhibition protocol. The settings on record: read-out: IC50 (nM) of enzyme activity HDAC6.
A further assay has as its target hHDAC3 (Homo sapiens (Human), UniProt O15379). Briefly: hHDAC3 inhibition protocol. The settings on record: read-out: IC50 (nM) of enzyme activity HDAC3; selectivity table.
For another assay, the target named is hHDAC4 (Homo sapiens (Human), UniProt P56524). In words: hHDAC4 inhibition protocol. The settings on record: read-out: IC50 (nM) of enzyme activity HDAC4; selectivity table.
Another assay addresses hHDAC9 (Homo sapiens (Human), UniProt Q9UKV0). Briefly: hHDAC9 inhibition protocol. The settings on record: read-out: IC50 (nM) of enzyme activity HDAC9; selectivity table.
For the next assay, the target named is hHDAC5 (Homo sapiens (Human), UniProt Q9UQL6). In words: hHDAC5 inhibition protocol. To be noted: read-out: IC50 (nM) of enzyme activity HDAC5; selectivity table.
The mark [1] stands for this setting: hHDAC6 1.20 nM, Acetylated Peptide A 2 μM, 1 hour at RT.

Sequence of hHDAC9 (Q9UKV0 whole entry): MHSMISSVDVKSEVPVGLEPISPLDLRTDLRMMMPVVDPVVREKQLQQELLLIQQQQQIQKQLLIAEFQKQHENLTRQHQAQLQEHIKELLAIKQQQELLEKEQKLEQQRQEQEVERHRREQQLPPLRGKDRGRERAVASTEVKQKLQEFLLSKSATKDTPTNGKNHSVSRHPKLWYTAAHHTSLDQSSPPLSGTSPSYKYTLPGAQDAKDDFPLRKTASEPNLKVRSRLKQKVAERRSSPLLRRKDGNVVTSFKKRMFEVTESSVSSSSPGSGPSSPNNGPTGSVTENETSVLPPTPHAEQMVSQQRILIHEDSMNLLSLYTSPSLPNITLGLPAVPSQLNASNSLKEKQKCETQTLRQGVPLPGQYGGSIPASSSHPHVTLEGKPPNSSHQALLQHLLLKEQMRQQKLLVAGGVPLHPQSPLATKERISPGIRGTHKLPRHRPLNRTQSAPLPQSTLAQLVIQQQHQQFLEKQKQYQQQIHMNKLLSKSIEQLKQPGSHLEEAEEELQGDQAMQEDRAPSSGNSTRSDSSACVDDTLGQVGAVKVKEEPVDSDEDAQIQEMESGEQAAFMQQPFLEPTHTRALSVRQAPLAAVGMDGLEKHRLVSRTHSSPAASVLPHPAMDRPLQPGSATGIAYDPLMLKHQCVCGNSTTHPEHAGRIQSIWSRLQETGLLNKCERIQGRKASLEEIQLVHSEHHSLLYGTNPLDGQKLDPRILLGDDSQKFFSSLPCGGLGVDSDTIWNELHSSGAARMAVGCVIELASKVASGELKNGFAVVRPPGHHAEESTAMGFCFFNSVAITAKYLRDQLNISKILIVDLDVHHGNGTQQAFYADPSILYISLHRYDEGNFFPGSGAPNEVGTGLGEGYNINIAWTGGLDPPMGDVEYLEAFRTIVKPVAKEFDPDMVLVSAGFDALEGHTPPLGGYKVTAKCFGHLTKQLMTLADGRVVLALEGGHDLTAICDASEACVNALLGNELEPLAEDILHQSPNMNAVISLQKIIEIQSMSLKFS
Sequence of hHDAC5 (Q9UQL6 whole entry): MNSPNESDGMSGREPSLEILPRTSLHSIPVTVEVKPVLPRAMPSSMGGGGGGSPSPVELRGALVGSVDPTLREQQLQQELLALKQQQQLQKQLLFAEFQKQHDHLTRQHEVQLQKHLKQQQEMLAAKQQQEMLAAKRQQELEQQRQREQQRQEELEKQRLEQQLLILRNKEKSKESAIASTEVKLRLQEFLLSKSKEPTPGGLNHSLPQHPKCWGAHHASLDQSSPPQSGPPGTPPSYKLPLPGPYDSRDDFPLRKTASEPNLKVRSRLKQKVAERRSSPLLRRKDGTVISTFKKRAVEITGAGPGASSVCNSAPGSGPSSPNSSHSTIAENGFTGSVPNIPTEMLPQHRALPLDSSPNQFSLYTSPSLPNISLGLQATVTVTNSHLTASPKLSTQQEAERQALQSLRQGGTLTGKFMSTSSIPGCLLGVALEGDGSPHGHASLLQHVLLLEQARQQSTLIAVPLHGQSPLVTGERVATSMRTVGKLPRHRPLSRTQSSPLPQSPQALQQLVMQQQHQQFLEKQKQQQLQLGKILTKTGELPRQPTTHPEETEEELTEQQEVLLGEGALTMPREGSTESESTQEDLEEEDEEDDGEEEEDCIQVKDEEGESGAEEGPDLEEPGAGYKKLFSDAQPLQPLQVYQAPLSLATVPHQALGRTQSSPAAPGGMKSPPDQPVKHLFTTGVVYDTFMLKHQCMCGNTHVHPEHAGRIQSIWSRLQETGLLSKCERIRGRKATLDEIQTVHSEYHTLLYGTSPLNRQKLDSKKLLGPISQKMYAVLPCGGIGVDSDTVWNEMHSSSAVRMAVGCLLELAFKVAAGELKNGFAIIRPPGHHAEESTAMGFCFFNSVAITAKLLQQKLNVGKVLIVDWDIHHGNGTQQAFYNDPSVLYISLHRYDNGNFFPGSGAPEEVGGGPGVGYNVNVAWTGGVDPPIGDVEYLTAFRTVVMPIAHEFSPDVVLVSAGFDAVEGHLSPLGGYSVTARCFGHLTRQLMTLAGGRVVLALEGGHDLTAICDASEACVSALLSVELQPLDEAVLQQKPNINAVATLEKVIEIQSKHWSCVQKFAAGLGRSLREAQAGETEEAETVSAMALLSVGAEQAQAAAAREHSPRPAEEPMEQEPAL
Sequence of hHDAC8 (Q9BY41 whole entry): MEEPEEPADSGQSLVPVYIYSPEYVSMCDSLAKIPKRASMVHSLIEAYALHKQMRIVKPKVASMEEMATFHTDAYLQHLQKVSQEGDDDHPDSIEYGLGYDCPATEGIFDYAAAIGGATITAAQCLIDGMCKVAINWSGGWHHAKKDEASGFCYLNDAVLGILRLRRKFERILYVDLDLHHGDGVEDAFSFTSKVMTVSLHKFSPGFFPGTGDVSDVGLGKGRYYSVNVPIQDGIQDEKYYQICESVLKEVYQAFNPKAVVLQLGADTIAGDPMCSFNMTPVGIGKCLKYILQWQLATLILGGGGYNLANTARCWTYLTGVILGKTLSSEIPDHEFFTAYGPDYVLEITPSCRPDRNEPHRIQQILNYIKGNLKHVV
Sequence of hHDAC1 (Q13547 whole entry): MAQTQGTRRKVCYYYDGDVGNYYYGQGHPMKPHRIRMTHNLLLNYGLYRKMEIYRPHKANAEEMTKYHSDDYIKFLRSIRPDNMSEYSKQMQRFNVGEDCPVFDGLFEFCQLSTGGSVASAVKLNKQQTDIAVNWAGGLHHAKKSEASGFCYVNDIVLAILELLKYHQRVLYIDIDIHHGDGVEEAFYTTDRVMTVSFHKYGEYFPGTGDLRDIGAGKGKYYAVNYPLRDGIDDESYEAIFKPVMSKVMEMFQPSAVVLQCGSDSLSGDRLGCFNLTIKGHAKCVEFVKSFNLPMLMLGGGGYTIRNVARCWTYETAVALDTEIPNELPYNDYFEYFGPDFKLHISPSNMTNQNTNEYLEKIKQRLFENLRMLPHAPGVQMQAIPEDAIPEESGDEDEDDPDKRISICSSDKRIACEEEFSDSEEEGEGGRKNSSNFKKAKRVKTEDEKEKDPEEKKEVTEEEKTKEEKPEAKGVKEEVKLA
Sequence of hHDAC3 (O15379 whole entry): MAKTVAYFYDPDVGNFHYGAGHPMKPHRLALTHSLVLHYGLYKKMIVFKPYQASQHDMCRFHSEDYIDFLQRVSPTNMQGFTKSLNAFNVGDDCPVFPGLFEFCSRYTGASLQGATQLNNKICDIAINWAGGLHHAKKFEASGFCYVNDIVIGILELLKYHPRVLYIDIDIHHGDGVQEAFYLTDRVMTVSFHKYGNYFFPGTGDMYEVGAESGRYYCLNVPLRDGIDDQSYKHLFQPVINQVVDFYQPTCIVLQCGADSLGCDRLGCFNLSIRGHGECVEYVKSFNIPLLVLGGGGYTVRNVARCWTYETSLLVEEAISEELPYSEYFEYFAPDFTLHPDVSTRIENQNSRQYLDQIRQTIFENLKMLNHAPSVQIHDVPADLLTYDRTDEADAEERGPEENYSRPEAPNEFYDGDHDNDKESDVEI
Sequence of hHDAC3 (Q9Y618 395-489 partner): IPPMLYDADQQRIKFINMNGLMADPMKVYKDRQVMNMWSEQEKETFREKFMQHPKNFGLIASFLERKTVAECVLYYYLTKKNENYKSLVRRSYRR
Sequence of hHDAC6 (Q9UBN7 whole entry): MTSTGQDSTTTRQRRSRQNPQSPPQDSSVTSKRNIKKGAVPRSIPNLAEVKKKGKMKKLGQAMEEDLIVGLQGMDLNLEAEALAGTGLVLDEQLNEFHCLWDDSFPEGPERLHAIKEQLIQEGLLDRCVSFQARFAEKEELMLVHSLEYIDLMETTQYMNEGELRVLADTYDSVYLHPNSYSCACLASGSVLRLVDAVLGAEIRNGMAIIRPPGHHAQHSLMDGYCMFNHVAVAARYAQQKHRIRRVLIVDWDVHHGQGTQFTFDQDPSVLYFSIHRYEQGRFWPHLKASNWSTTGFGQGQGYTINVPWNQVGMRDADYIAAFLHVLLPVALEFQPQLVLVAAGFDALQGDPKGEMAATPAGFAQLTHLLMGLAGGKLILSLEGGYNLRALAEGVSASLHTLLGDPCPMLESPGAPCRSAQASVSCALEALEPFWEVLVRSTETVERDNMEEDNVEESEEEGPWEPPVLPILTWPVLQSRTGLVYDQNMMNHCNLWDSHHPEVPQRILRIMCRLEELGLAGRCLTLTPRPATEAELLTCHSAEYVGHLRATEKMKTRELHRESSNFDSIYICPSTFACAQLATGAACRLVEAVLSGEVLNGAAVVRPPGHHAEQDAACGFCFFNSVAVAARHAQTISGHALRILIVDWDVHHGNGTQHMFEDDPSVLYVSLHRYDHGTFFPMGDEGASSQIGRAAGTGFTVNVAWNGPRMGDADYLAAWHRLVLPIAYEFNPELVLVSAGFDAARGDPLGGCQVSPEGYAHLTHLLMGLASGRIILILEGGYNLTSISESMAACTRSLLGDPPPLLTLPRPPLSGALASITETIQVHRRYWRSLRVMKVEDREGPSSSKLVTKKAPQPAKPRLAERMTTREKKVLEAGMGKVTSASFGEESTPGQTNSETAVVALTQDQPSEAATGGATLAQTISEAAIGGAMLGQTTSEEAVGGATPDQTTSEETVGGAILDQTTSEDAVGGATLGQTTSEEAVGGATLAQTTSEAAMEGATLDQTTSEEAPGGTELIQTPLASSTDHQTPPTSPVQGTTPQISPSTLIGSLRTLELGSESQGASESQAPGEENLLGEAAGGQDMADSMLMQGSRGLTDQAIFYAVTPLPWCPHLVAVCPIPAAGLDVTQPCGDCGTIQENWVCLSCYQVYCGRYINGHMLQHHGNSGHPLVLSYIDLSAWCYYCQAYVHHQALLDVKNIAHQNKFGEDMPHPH
Experimental for hHDAC10: (§1) After enzymatic reactions, reaction was stopped by adding 5 μl of 10 μM solution of a known inhibitor. The fluorescent signal of substrate and product was measured by means of microfluidics mobility assay in a EZ Reader II equipment. The percentage of conversion of substrate into product was calculated by the equipment software based on the area of the peaks.
(§2) The percentage of conversion data were analyzed using the computer software, Graphpad Prism. In the absence of the compound, the conversion (Ct) in each data set was defined as 100% activity. In the absence of HDAC, the conversion (Cb) in each data set was defined as 0% activity. The percent activity in the presence of each compound was calculated according to the following equation: % inhibition=(Ct−C)/(Ct−Cb), where C=the percentage of conversion in the presence of the compound.
(§3) The values of % inhibition versus a series of compound concentrations were then plotted using non-linear regression analysis of Sigmoidal dose-response curve generated with the equation Y=B+(T−B)/1+10((Log EC50−X)×Hill Slope), where Y=percent inhibition, B=minimum percent inhibition, T=maximum percent inhibition, X=logarithm of compound and Hill Slope=slope factor or Hill coefficient. The IC50 value was determined by the concentration causing a half-maximal percent activity.
The buffer assay used in the inhibition hHDAC10 assay is: Hepes 50 mM, KCl 100 mM, Tween 20 0.001%, BSA 0.01%; pH=7.4.
Experimental for hHDAC2: as §1, §2, §3
The buffer assay used in the inhibition hHDAC2 assay is: Hepes 50 mM, KCl 100 mM, Tween 20 0.001%, BSA 0.01%; pH=7.4.
Experimental for hHDAC3: as §1, §2, §3
The buffer assay used in the inhibition hHDAC3 assay is: Hepes 50 mM, KCl 100 mM, Tween 20 0.001%, BSA 0.01%; pH=7.4.
Experimental for hHDAC4: as §1, §2, §3
The buffer assay used in the inhibition hHDAC4 assay is: Hepes 50 mM, KCl 100 mM, Tween 20 0.001%, BSA 0.01%; pH=7.4.
Experimental for hHDAC5: as §1, §2, §3
The buffer assay used in the inhibition hHDAC5 assay is: Hepes 50 mM, KCl 100 mM, Tween 20 0.001%, BSA 0.01%; pH=7.4.
Experimental for hHDAC6: as §1, §2, §3
The buffer assay used in the inhibition hHDAC6 assay is: Hepes 50 mM, KCl 100 mM, Tween 20 0.001%, BSA 0.01%; pH=7.4.
Experimental for hHDAC7: The fluorescent signal of substrate and product was measured by means of microfluidics mobility assay in a EZ Reader II equipment. The percentage of conversion of substrate into product was calculated by the equipment software based on the area of the peaks.
as §2, §3
The buffer assay used in the inhibition hHDAC7 assay is: Hepes 50 mM, KCl 100 mM, Tween 20 0.001%, BSA 0.01%; pH=7.4.
Experimental for hHDAC8: as §1, §2, §3
The buffer assay used in the inhibition hHDAC8 assay is: Hepes 50 mM, KCl 100 mM, Tween 20 0.001%, BSA 0.01%; pH=7.4.
Experimental for hHDAC9: as §1, §2, §3
The buffer assay used in the inhibition hHDAC9 assay is: Hepes 50 mM, KCl 100 mM, Tween 20 0.001%, BSA 0.01%; pH=7.4.

`FC(F)c1nnc(-c2ccc(Cn3cc(-c4ccccc4)nn3)cc2)o1` [Example 27, 2-(difluoromethyl)-5-(4-((4-phenyl-1H-1,2,3-triazol-1-yl)methyl)phenyl)-1,3,4-oxadiazole]: the IC50 was greater than 10000 nM on hHDAC1; greater than 10000 nM at hHDAC2; greater than 10000 nM at hHDAC7; greater than 10000 nM on hHDAC10; greater than 10000 nM at hHDAC8; 85.3 nM on hHDAC6 (setting [1]). The IC50 at hHDAC6 (selectivity table) was 85.3 nM; at hHDAC3, greater than 10000 nM; on hHDAC4, greater than 10000 nM; at hHDAC9 it was greater than 10000 nM; on hHDAC5 it was greater than 10000 nM.

On to `Fc1ccccc1-c1cn(Cc2ccc(-c3nnc(C(F)F)o3)cn2)nn1` [Example 48, 2-(difluoromethyl)-5-(6-((4-(2-fluorophenyl)-1H-1,2,3-triazol-1-yl)methyl)pyridin-3-yl)-1,3,4-oxadiazole], for which the IC50 on hHDAC1 is greater than 10000 nM; at hHDAC2, greater than 10000 nM; at hHDAC7, greater than 10000 nM; at hHDAC10, greater than 10000 nM; at hHDAC8, greater than 10000 nM; on hHDAC6 (setting [1]), 24 nM. Besides, the IC50 was 24 nM at hHDAC6 (selectivity table); greater than 10000 nM at hHDAC3; greater than 10000 nM at hHDAC4; greater than 10000 nM at hHDAC9; greater than 10000 nM at hHDAC5.

Consider `FC(F)c1nnc(-c2ccc(Cn3nnc(-c4cccc(Cl)c4)c3Cl)nc2)o1` [Example 54, 2-(6-((5-chloro-4-(3-chlorophenyl)-1H-1,2,3-triazol-1-yl)methyl)pyridin-3-yl)-5-(difluoromethyl)-1,3,4-oxadiazole], for which the IC50 on hHDAC1 was greater than 10000 nM; on hHDAC2 it was greater than 10000 nM; on hHDAC7 it was 1400 nM; on hHDAC10, greater than 10000 nM; at hHDAC8 it was greater than 10000 nM; on hHDAC6 (setting [1]), 34.1 nM. Further, the IC50 is 34.1 nM on hHDAC6 (selectivity table); greater than 10000 nM on hHDAC3; 1490 nM on hHDAC4; 2610 nM on hHDAC9; greater than 10000 nM at hHDAC5.
